# Test results published in patent US20230292743A1, “Method for increasing the lifespan and motility of animal sperm using an inhibitor of Slo3 potassium channel” (IMV TECHNOLOGIES, priority 2017, published 2023).
# Assays:
# [1] = test system: mouse sperm; test: Ability of mouse sperm to fertilize oocytes after incubation in capacitation medium (in vitro fertilization, 2-cell embryos); format: cell-based; conditions: vs control; for percentage of 2-cell embryos vs mature MII oocytes at 24 h post fertilization: 12 hours incubation prior fertilization; for percentage of 2-cell embryos vs mature oocytes at 48 h post fertilization: 5 μM clofilium in M16-BSA medium
# Protocol: Mouse sperm was obtained by manual trituration of caudae epididymides from male and were allowed to swim in M2 medium (from Sigma) for 10 minutes. The M2 medium composition in g/L is as follows: CaCl2 0.25; MgSO4 (anhydrous) 0.1649; KCl 0.35635; K2HPO4 0.162; NaHCO3 0.35; NaCl 5.53193; Albumin, Bovine Fraction V 4.0; D-Glucose 1.0; HEPES (for 4-(2-HydroxyEthyl)-1-Piperazine EthaneSulfonic acid)×Na 5.42726; Pyruvic Acid×Na 0.0363; DL-Lactic Acid×Na 2.95). Sperm were then capacitated in M16 medium (from Sigma) with 2% fatty acid-free BSA (for Bovine Serum Albumin) (named “M16-BSA medium”) at 37° C. in a 5% v/v CO2 incubator for different times as specified. M16 medium is a commercial and commonly used medium for in vitro fertilization and culture of preimplantation stage embryos. Oocytes were collected from mature OF1 females, synchronized with 5 units of pregnant mare serum gonadotrophin (PMSG) and 5 units of human chorionic gonadotrophin (HCG). Cumulus were harvested directly from the ampulla and sperm were injected into the M16 droplets containing the cumulus. 1. The first test related to the ability of mouse sperm to fertilize oocytes when incubated prior fertilization in a capacitation medium containing clofilium with regard to a control medium, which is the same capacitation medium but without clofilium. The capacitation medium was M16-BSA medium. The control medium was the M16-BSA medium containing the sperm. It was compared to the same medium further including clofilium at a concentration of 5 μM (in the M16-BSA medium containing the sperm). Sperm was incubated in M16-BSA medium with or without clofilium and then added to M16 droplets containing the cumulus comprising the oocytes. Two-cell embryos were counted at 48 h post insemination (n=3). The number of oocytes reaching the two-cell stage were counted at 48 hours after fertilization. Two different concentrations of clofilium were tested: 0.2 μM of clofilium and 5 μM of clofilium (in the M16-BSA medium containing the sperm). The sperm incubation time prior fertilization was 12 hours. The test related to the ability of mouse sperm to fertilize oocytes, sperm being incubated prior fertilization in a medium containing quinidine with regard to a control medium, without quinidine. The control medium was the M16-BSA medium containing the sperm (“control”). It was compared to the same medium further including quinidine, at various concentrations 5 μM quinidine (“5 μM quinidine”), 10 μM quinidine (“10 μM quinidine”), 25 μM quinidine (“25 μM quinidine”) and 100 μM quinidine (“100 μM quinidine”).
# [2] = test system: mouse sperm; test: Mouse sperm motility by CASA analysis (VCL) after 12 h capacitation; format: cell-based; conditions: 0.2 μM clofilium, 12 h capacitation in M16-BSA medium at 37° C., vs control
# Protocol: 3. The viability of mouse sperm was determined by the measurement of the sperm motility. The motility analysis was performed using Computer Assisted Semen Analysis (CASA analysis). The CASA analysis was always performed in the examples using a CEROS™, Hamilton Thorne Bioscience, USA. VCL was thus measured. As known to the skilled person, VCL (for Curvilinear Velocity) is the average velocity of the sperm head through its real path. For this analysis, samples were diluted at 0.1 10^6/mL. The diluted sample was incubated for 12 hours at 37° C. in a capacitation medium of M16-BSA medium, with or without 0.2 μM clofilium. For the CASA measurement, 10 μL of the sample were placed on a 2X-CEL Slides, […], Leja Products B.V.,Netherlands, placed on the heating stage (37° C.) of the CEROS ™. A total of 10 automatically selected fields were analyzed.
smiles,measurement,setting,value
CCCCCCC[N+](CC)(CC)CCCCc1ccc(Cl)cc1 [clofilium],percentage of 2-cell embryos vs mature MII oocytes at 24 h post fertilization,[1]; 0.2 μM clofilium,improves the mouse in vitro fertilization outcome
same,percentage of 2-cell embryos vs mature oocytes at 48 h post fertilization,[1]; 3 h incubation period prior fertilization,not significantly different than that of control
same,percentage of 2-cell embryos vs mature oocytes at 48 h post fertilization,[1]; long incubation periods (>3 hours) prior fertilization,higher number of 2-cell stages than what was observed with the control
same,percentage of 2-cell embryos vs mature oocytes at 48 h post fertilization,[1]; short incubation periods (<3 hours) prior fertilization,positive effect
same,percentage of 2-cell embryos vs mature MII oocytes at 24 h post fertilization,[1]; 5 μM clofilium,potent
same,motility of sperm (in terms of VCL),[2],higher velocity than the “control”
